Literature values in patent US20250325691A1, “HER2-GST-SN-38 COMPLEX, AND PHARMACEUTICAL COMPOSITION COMPRISING SAME FOR PREVENTING OR TREATING PROLIFERATIVE DISEASES” (priority 2022, published 2025).

System: various cancer cells
Details: various cancer cells in vitro; cited from earlier work

In the case of `CCc1c2c(nc3ccc(O)cc13)-c1cc3c(c(=O)n1C2)COC(=O)[C@]3(O)CC` [SN-38, 7-ethyl-10-hydroxycamptothecin], the “cytotoxic activity, times more potent than irinotecan” value is given as “up to 1,000 times”.
